Measurements reported in patent US12351574B2, “Selective ligands for modulation of GIRK channels” (Northeastern University, priority 2018, dated 2025).

Molecular target: T1, GIRK1-S65Y with GIRK2 (UniProt P48542+P48549, S65Y)
T1 construct: expressed in transfected cells; host or cells: HEK293 cells
T1 sequence (P48549 1-501 S65Y): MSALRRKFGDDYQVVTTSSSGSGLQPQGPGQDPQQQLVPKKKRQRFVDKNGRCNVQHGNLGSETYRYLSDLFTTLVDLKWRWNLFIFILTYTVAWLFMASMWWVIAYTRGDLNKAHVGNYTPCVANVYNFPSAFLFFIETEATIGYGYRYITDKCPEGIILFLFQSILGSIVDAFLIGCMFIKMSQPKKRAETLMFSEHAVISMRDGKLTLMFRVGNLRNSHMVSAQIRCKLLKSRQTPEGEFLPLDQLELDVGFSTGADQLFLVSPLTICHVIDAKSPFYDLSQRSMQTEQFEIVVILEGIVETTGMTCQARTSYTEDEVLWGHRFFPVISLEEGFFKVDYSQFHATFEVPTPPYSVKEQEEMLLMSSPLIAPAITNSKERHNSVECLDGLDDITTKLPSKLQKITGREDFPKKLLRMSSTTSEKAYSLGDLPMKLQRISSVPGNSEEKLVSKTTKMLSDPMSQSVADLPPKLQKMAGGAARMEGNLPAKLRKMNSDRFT
T1 sequence (P48542 1-425): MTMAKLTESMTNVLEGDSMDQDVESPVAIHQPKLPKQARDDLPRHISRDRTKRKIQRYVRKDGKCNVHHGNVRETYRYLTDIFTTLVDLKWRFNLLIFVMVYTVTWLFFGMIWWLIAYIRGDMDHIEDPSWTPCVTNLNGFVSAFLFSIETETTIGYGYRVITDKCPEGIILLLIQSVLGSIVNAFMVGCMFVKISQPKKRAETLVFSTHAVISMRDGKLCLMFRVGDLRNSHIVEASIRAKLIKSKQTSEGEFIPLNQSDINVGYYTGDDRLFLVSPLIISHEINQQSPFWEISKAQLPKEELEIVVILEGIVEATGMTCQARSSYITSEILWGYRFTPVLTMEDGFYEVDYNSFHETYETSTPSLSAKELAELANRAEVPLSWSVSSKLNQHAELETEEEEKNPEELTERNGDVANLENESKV
Assay: 5-ptaseOCRL current inhibition, GIRK1/2 channels containing GIRK1-S65Y subunits
Assay type: cell-based, human GIRK1, mouse GIRK2
Conditions: 10 μM GAT1508
From the text: To identify changes in specific channel residue interactions with PIP2 upon ligand binding, the inventors carried out Principal Component Analysis (PCA) in the presence and absence of ML297 and GAT1508. The PCA analysis implicated changes in the slide (or interfacial) helix interactions with PIP2 upon ligand binding. Polar interactions could be formed between GIRK2^FD(Y76) and GIRK4^FD(Y71) with the P(4,5) of PIP2 when ML297 was bound to the same subunit (FIG. 39 top, FIG. 40). In contrast, when GAT1508 was bound this interaction was retained by GIRK2^FD but not GIRK4^FD (FIG. 39 bottom, FIG. 40). The corresponding GIRK1(S65) residue (FIG. 41, highlighted with vertical rectangle) could be serving the same role in stabilizing the phosphoinositol headgroup for interactions with non-ligand binding subunits. As polar residues, both Ser and Tyr could form H-bond interactions with PIP2. […]
Patch-clamp recording: Whole-cell currents were recorded with an Axopatch 200B amplifier (Molecular Devices) controlled via a USB-interface (National Instruments) using WinWCP software (University of Strathclyde). […] The barium-sensitive component of the current, observed when cells were perfused with the high-K^+ buffer, was analyzed and was determined by perfusing 5 mM BaCl2 in the high-K^+ buffer at the end of each experiment. […]

protection of current from 5-ptaseOCRL (in words): no additional effect
Structure (SMILES): Cc1cc(NC(=O)Nc2ccc(Br)s2)n(-c2ccccc2)n1 [GAT1508, 1-(5-bromothiophen-2-yl)-3-(3-methyl-1-phenyl-1H-pyrazol-5-yl)urea]
